What was measured:
Assay in all cases: relative viability (nuclei count vs DMSO), 5 days (fraction); higher = more cells survive
[1] = compound: CS(=O)(=O)c1ccc(-c2cnc(N)c(C(=O)Nc3ccccc3)n2)cc1 [VE-821] + CC(=O)Nc1cccc(-n2c(=O)n(C3CC3)c(=O)c3c(Nc4ccc(I)cc4F)n(C)c(=O)c(C)c32)c1 [Trametinib] (partner 0.02 µM)
How it was run: (§1)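 Medians of duplicate plates are given as relative viability. That measure is the nuclei count in treated wells divided by the count in vehicle wells. Counts were taken on 4× images of lung cancer cell lines in 1536-well plates, 5 days after pin-tool dosing the day after seeding with one drug alone or a fixed anchor-drug dose plus five library-drug doses (not always all listed) in √10 steps.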

[2] = compound: N#CC[C@H](C1CCCC1)n1cc(-c2ncnc3[nH]ccc23)cn1 [Ruxolitinib] + CC1(C)CCC(c2ccc(Cl)cc2)=C(CN2CCN(c3ccc(C(=O)NS(=O)(=O)c4ccc(N[C@H](CCN5CCOCC5)CSc5ccccc5)c(S(=O)(=O)C(F)(F)F)c4)cc3)CC2)C1 [Navitoclax] (partner 0.5 µM)
How it was run: as §1

[3] = compound: N#CC[C@H](C1CCCC1)n1cc(-c2ncnc3[nH]ccc23)cn1 [Ruxolitinib] + N=C(N)NC(=N)NCCc1ccccc1 [Phenformin] (partner 250 µM)
How it was run: as §1

[4] = compound: N#CC[C@H](C1CCCC1)n1cc(-c2ncnc3[nH]ccc23)cn1 [Ruxolitinib] + O=C(c1cc(Cc2n[nH]c(=O)c3ccccc23)ccc1F)N1CCN(C(=O)C2CC2)CC1 [Olaparib] (partner 8 µM)
How it was run: as §1

Cell Line	relative viability ([1]; first compound 0.08 µM)	relative viability ([1]; first compound 0.253 µM)	relative viability ([1]; first compound 0.8 µM)	relative viability ([1]; first compound 2.53 µM)	relative viability ([1]; first compound 8 µM)	relative viability ([2]; first compound 0.253 µM)	relative viability ([2]; first compound 0.8 µM)	relative viability ([2]; first compound 2.53 µM)	relative viability ([2]; first compound 8 µM)	relative viability ([3]; first compound 0.253 µM)	relative viability ([3]; first compound 0.8 µM)	relative viability ([3]; first compound 2.53 µM)	relative viability ([3]; first compound 8 µM)	relative viability ([4]; first compound 0.08 µM)	relative viability ([4]; first compound 0.253 µM)	relative viability ([4]; first compound 0.8 µM)	relative viability ([4]; first compound 2.53 µM)	relative viability ([4]; first compound 8 µM)	relative viability ([2]; first compound 0.08 µM)	relative viability ([3]; first compound 0.08 µM)
NCI-H2405	0.643	0.628	0.53	0.699	0.546	0.771	1.28	0.456	0.471	0.36	0.404	0.308	0.312	0.931	0.838	0.882	0.633	0.573	–	–
NCI-H3122	0.219	0.216	0.235	0.228	0.265	1.03	0.981	0.923	0.963	0.429	0.378	0.327	0.318	0.7	0.635	0.711	0.627	0.644	1.04	–
PC-3 [JPC-3]	0.727	0.744	0.701	0.826	0.763	0.771	0.771	0.757	0.73	0.477	0.477	0.443	0.481	–	1.07	1.13	1.03	0.922	0.69	0.428
PC-14	0.966	0.689	0.656	0.63	0.429	1.03	1.01	0.927	0.723	0.436	0.518	0.566	0.604	–	0.302	0.233	0.353	0.298	–	–
RERF-LC-KJ	0.935	0.788	0.704	0.81	0.69	0.963	1.59	1.15	0.657	0.418	0.426	0.42	0.332	0.966	0.881	0.948	0.844	0.626	1.05	0.349
SK-LU-1	0.495	0.53	0.387	0.547	0.291	0.634	0.0636	0.539	0.656	0.529	0.637	0.433	0.422	0.428	0.456	0.572	0.381	0.359	0.79	0.551
SK-MES-1	0.609	0.516	0.462	0.471	0.455	1.12	1.26	1.18	0.9	0.641	0.663	0.593	0.495	0.766	0.639	0.713	0.563	0.597	1.3	0.708
SW 1573	0.53	0.627	0.574	0.547	0.378	0.925	1.02	0.918	1.04	0.324	0.417	0.308	0.369	0.518	0.586	0.473	0.416	0.352	1.06	0.419
